Source: patent publication US20230136297A1, “Methods Of Treating Fabry Disease In Patients Having A Mutation In The GLA Gene” (Amicus Therapeutics, Inc., priority 2020, published 2023)
Substitutions are numbered along the chain they refer to.

Legend:
Experiment in all cases: α-Gal A activity in lysates of transfected HEK-293 cells ± migalastat (HEK assay)
Type in all cases: cell-based
[1] = target: T1, α-Gal A mutant form A257T (Homo sapiens, UniProt P06280, A257T)
T1 construct: expressed in transfected cells; host or cells: HEK-293
T1 sequence (P06280 32-429 A257T): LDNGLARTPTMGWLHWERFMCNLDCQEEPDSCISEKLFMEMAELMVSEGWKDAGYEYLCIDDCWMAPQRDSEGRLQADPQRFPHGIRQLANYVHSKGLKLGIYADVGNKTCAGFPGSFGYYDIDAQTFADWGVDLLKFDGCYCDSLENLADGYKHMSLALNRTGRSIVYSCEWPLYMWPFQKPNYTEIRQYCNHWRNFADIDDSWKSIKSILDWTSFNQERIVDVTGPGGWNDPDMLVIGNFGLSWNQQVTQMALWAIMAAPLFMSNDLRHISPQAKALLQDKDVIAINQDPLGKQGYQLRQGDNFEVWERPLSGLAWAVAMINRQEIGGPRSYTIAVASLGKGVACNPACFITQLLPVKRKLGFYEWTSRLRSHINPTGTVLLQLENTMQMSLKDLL
Text: (§1) Such mutations or variants are also referred to herein as “HEK assay amenable” mutations or variants.
(§2) The α-Gal A activity is expressed as the nmoles of free 4-MU released per milligram of protein per hour (nmol/mg/hr).

[2] = target: T2, α-Gal A mutant form I133F (Homo sapiens, UniProt P06280, I133F)
T2 construct: expressed in transfected cells; host or cells: HEK-293
T2 sequence (P06280 32-429 I133F): T1 sequence (P06280 32-429 A257T) with I102F, T226A
Text: as §1, §2

[3] = target: T3, α-Gal A mutant form L180V (Homo sapiens, UniProt P06280, L180V)
T3 construct: expressed in transfected cells; host or cells: HEK-293
T3 sequence (P06280 32-429 L180V): T1 sequence (P06280 32-429 A257T) with L149V, T226A
Text: as §1, §2

[4] = target: T4, α-Gal A mutant form L310V (Homo sapiens, UniProt P06280, L310V)
T4 construct: expressed in transfected cells; host or cells: HEK-293
T4 sequence (P06280 32-429 L310V): T1 sequence (P06280 32-429 A257T) with T226A, L279V
Text: as §1, §2

[5] = target: T5, α-Gal A mutant form R196T (Homo sapiens, UniProt P06280, R196T)
T5 construct: expressed in transfected cells; host or cells: HEK-293
T5 sequence (P06280 32-429 R196T): T1 sequence (P06280 32-429 A257T) with R165T, T226A
Text: as §1, §2

[6] = 10 μM migalastat minus baseline
[7] = HEK-293 lysates, 10 μM migalastat 5 days, mean ± SEM

Absolute increase (% WT) [1, 6]: 40.6 % WT
Relative increase ([1]; 10 μM migalastat ÷ baseline): 2.56
10 μM migalastat α-Gal A activity [1, 7]: 18990 ± 1196 nmol/mg/h
10 μM migalastat α-Gal A activity (% WT) [1, 7]: 66.2 ± 4.1 % WT
Absolute increase (% WT) [2, 6]: 3.1 % WT
Relative increase ([2]; 10 μM migalastat ÷ baseline): 5.27
10 μM migalastat α-Gal A activity [2, 7]: 1542 ± 154 nmol/mg/h
10 μM migalastat α-Gal A activity (% WT) [2, 7]: 3.8 ± 0.3 % WT
Absolute increase (% WT) [3, 6]: 36.2 % WT
Relative increase ([3]; 10 μM migalastat ÷ baseline): 1.97
10 μM migalastat α-Gal A activity [3, 7]: 25437 ± 1279 nmol/mg/h
10 μM migalastat α-Gal A activity (% WT) [3, 7]: 73.4 ± 2.9 % WT
Absolute increase (% WT) [4, 6]: 22.8 % WT
Relative increase ([4]; 10 μM migalastat ÷ baseline): 1.37
10 μM migalastat α-Gal A activity [4, 7]: 31936 ± 2527 nmol/mg/h
10 μM migalastat α-Gal A activity (% WT) [4, 7]: 78.4 ± 4.8 % WT
Absolute increase (% WT) [5, 6]: 22.4 % WT
Relative increase ([5]; 10 μM migalastat ÷ baseline): 1.48
10 μM migalastat α-Gal A activity [5, 7]: 26217 ± 1611 nmol/mg/h
10 μM migalastat α-Gal A activity (% WT) [5, 7]: 69.5 ± 2.6 % WT
SMILES: OC[C@H]1NC[C@H](O)[C@@H](O)[C@H]1O [migalastat, (2R,3S,4R,5S)-2-(hydroxymethyl) piperdine-3,4,5-triol]
